Molecules are shown by their SMILES. Where two headings read alike, the source gives them in different places. Where only a bound is given, the exact number is not on record here.

The target of assay [1] is phosphorylated PDK1 (Homo sapiens (Human), UniProt O15530). Nature of the assay: PDK1 kinase assay (coupled PDK1/AKT/FAM-crosstide, IMAP). Type of assay: biochemical. Particulars: 0.5 nM phosphorylated PDK1, 24 μM ATP; read-out: Inhibition of phospo-PDK1 in vitro IC50.
In assay [2] the target is dephosphorylated PDK1 (Homo sapiens (Human), UniProt O15530). Described as above. Type of assay: biochemical. Conditions: 25 nM un-phosphorylated PDK1, 24 μM ATP; read-out: Inhibition of dephospo-PDK1 in vitro IC50. How it is done: A PDK1 kinase assay was performed as follows. PDK1 (amino acids 51-360) and AKT2 (amino acids 140-467 fused to PIFtide, amino acids […]) were expressed as N-terminally tagged GST fusion proteins in insect cells and purified to greater than 90% homogeneity. PDK1 protein was divided into two fractions, one of which was subsequently dephosphorylated. To generate dephosphorylated PDK1, the PDK1 was reacted with GST-tagged lambda-phosphatase in vitro. GST was subsequently cleaved proteolytically for both phosphorylated and dephosphorylated PDK1. Protein preparations were run on glutathione Sepharose columns to remove GST and GST-tagged lambda-phosphatase, if present. Phosphorylated PDK1 and dephosphorylated PDK1 were verified by mass-spectrometry. Enzyme activity was determined in a coupled PDK1/AKT/FAM-crosstide assay using either phosphorylated or unphosphorylated PDK1 and phosphorylation of FAM-crosstide was determined by standard IMAP protocol (Molecular Devices). For inhibition studies, compounds were titrated 3-fold in DMSO and diluted 40-fold into assay buffer (10 mM Tris HCl pH7.2; 10 mM MgCl2; 0.01% Triton X-100; 1 mM DTT) containing PDK1, AKT2, and FAM-crosstide. (final concentrations: 25 nM un-phosphorylated PDK1 or 0.5 nM phosphorylated PDK1, 30 nM unphosphorylated AKT2, and 100 nM crosstide substrate). The kinase reaction was initiated by adding ATP to a final concentration of 24 μM for both forms of PDK1 and incubated at 25° C. for 30 min. To detect assay product, the kinase reaction was combined with Progressive Binding Solution (1:600 Progressive Binding Reagent, 50% Buffer A, 50% Buffer B, Molecular Devices) in a 1:3 ratio. The mixture was incubated for 2 hours at 25° C. and the plate was scanned on an Analyst AD with excitation at 485 nm and emission at 530 nm. The fluorescence polarization value “P” is defined by the equation below. The value “mP” is generated by multiplying the P value for each reaction well by a factor of 1000. The value “ΔmP” for each well is the mP value for that well minus the mP value for the average negative control. P=(Fpar−Fperp)/(Fpar+Fperp) Eq.:
Where “par” is fluorescence intensity parallel to the excitation plane; and “perp” is fluorescence intensity perpendicular to the excitation plane. ΔmP values were plotted as a function of compound concentration and the data were analyzed with a 4-parameter fit using GraphPad Prism software.

In assay [3] the test system is phospho-akt (Thr308). Put plainly: phospho-akt (Thr308) MSD ELISA in PC-3 cells. Type of assay: cell-based. Conditions: Homo sapiens, PC-3, 2 h, PC-3 cells, 2 hours, no serum. The method in brief:
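Read-out is MSD electrochemiluminescence after lysate capture overnight at 4 degrees and 1 hr RT detection-antibody step. Before lysis, overnight-plated PC-3 cells received three-fold serial dilutions of inhibitor in serum-free medium, with DMSO-only high controls.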
On the technique in general: An ELISA detects its analyte on a solid surface through an enzyme-linked reagent.

[4] abbreviates: read-out: Inhibition of P308 Akt in cells using MSD EC50.
Setting [5] is: read-out: Reduction of Cellular Levels of Akt p308 By MSD ELISA (EC50 μM).

Sequence of phosphorylated PDK1 (O15530 51-360): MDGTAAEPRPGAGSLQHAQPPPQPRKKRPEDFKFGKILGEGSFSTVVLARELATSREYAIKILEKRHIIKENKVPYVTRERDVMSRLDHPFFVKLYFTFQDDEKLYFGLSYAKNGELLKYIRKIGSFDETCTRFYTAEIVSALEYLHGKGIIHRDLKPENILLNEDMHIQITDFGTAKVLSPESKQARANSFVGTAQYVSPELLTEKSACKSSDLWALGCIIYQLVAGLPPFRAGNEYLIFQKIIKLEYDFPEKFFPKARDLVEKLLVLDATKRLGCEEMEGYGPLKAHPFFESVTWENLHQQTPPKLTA
Sequence of dephosphorylated PDK1 (O15530 51-360): as above

As to `Cc1sc(CNC(=O)c2cccn(Cc3ccc(F)c(F)c3)c2=O)nc1-c1c[nH]c2ncccc12` [Cpd 275], the results for the IC50 in assay [1] and in assay [2] were 500 to 10000 nM and less than 500 nM, respectively.
Regarding `O=C(NCc1nc(-c2c[nH]c3ncccc23)cs1)c1cc(Cl)cn(Cc2ccc(Cl)cc2)c1=O` [Cpd 273], the half-maximal inhibitory concentration (IC50) in assay [1] and in assay [2] was less than 500 nM throughout.
Turning to `O=C(N[C@H](COc1ccc2[nH]c(=O)[nH]c2c1)C1CCOC1)c1cccn(Cc2cc(F)c(F)c(F)c2)c1=O` (stereo partly shown) [Cpd 185], the concentration for half-maximal inhibition (IC50) in assay [1] and in assay [2] was less than 500 nM throughout.
As to `CNC(=O)[C@H](COc1ccc2[nH]c(=O)[nH]c2c1)NC(=O)c1cccn(Cc2cc(F)c(F)c(F)c2)c1=O` [Cpd 157], the half-maximal inhibitory concentration (IC50) in assay [1] and in assay [2] was less than 500 nM each time.
Consider `O=C(Nc1cccn(Cc2ccc(F)c(F)c2)c1=O)c1cccc(-c2c[nH]c3ncccc23)c1` [Cpd 288], for which the IC50 (usually the point on the concentration scale where inhibition reaches its midpoint) in assay [2] was less than 500 nM.
Consider `CCc1ccnc(NCCC#CCCNC(=O)c2cc(Cl)cn(Cc3cccc(Cl)c3)c2=O)n1` [Cpd 257], for which the half-inhibitory concentration (IC50) in assay [1] and in assay [2] was less than 500 nM in each case.
With `COc1ccnc(NCCC#CCCNC(=O)c2cc(F)cn(Cc3cccc(F)c3)c2=O)n1` [Cpd 258], the IC50 in assay [1] and in assay [2] was less than 500 nM in each case.
In the case of `O=C(NCc1nc(-c2c[nH]c3ncccc23)cs1)c1cccn(Cc2cccc(Cl)c2)c1=O` [Cpd 272], the IC50 in assay [1] and in assay [2] was less than 500 nM each time.
Regarding `COc1ccnc(NCCCCCNC(=O)c2cccn(Cc3ccc(F)c(Cl)c3)c2=O)n1` [Cpd 266], the IC50 is 500 to 10000 nM in assay [1] and less than 500 nM in assay [2].
On the same counts, the results for `O=C(NCc1cccc(-c2ccc3nonc3c2)c1)c1cccn(Cc2ccc(F)c(F)c2)c1=O` [Cpd 219] are more than 10000 nM and 500 to 10000 nM.
For `C[C@@H](NC(=O)c1cccn(Cc2ccc(F)c(F)c2)c1=O)c1nc(-c2c[nH]c3ncccc23)cs1` [Cpd 114], the IC50 in assay [1] and in assay [2] was less than 500 nM in each case.
For the compound `O=C(NCCOc1cc(F)c2[nH]c(=O)[nH]c2c1)c1cccn(Cc2ccc(F)c(F)c2)c1=O` [Cpd 158], the IC50 was 500 to 10000 nM in assay [1] and less than 500 nM in assay [2].
Regarding `CC(=O)Nc1cc(NCCCCCNC(=O)c2cccn(Cc3cccc(Cl)c3)c2=O)ncn1` [Cpd 99], the half-maximal inhibitory concentration (IC50) in assay [1] is more than 10000 nM; in assay [2] it was 500 to 10000 nM.
Consider `Nc1ncnc2[nH]nc(-c3cccc(CNC(=O)c4cccn(Cc5ccc(F)c(F)c5)c4=O)c3)c12` [Cpd 5], for which the IC50 in assay [1] and in assay [2] was less than 500 nM each time.
In the case of `COc1ccnc(NCCC#CCNC(=O)c2cccn(Cc3cccc(Cl)c3)c2=O)n1` [Cpd 262], the half-inhibitory concentration (IC50) in assay [1] and in assay [2] was less than 500 nM each time.
As to `COc1ccnc(NCCCCCNC(=O)c2cc(Br)cn(Cc3cccc(F)c3)c2=O)n1` [Cpd 253], the IC50 in assay [1] is 500 to 10000 nM; in assay [2], less than 500 nM.
`COc1ccnc(NCCC#CCCNC(=O)c2cccn([C@H](C)c3ccc(Cl)cc3)c2=O)n1` [Cpd 259]: the IC50 in assay [1] and in assay [2] was less than 500 nM each time.
`Cc1nc(CNC(=O)c2cccn(Cc3ccc(F)c(F)c3)c2=O)sc1-c1c[nH]c2ncccc12` [Cpd 115]: the IC50 is 500 to 10000 nM in assay [1] and less than 500 nM in assay [2].
The like results for `O=C(NCc1cccc(-c2c[nH]c3ncccc23)c1)c1cccc(Nc2ccccc2)n1` [Cpd 54] were, in that order, less than 500 nM and less than 500 nM.
Regarding `O=C(NCCSc1ccc2[nH]c(=O)[nH]c2c1)c1cccn(Cc2ccc(F)c(F)c2)c1=O` [Cpd 118], the IC50 in assay [1] is 500 to 10000 nM; in assay [2], less than 500 nM.
Take `O=C(NCc1cccc(-c2cc[nH]c(=O)c2)c1)c1cccn(Cc2ccc(F)c(F)c2)c1=O` [Cpd 224]: the 50% inhibitory concentration (IC50) in assay [2] lay within 500 to 10000 nM.
As to `O=C(NS(=O)(=O)c1ccc(-c2c[nH]c3ncccc23)s1)c1cccn(Cc2ccc(F)c(F)c2)c1=O` [Cpd 231], the IC50 in assay [1] and in assay [2] was 500 to 10000 nM each time.
Consider `O=C(NCCOc1ccc2c(c1)[nH]c(=O)n2CCN1CCCC1)c1cccn(Cc2ccc(F)c(F)c2)c1=O` [Cpd 130], for which the concentration for half-maximal inhibition (IC50) in assay [1] and in assay [2] was 500 to 10000 nM in each case.
As to `Cn1c(=O)[nH]c2cc(OCCNC(=O)c3cccn(Cc4ccc(F)c(F)c4)c3=O)ccc21` [Cpd 119, N-(3-(4-chloro-H-pyrrolo[2,3-b]pyridin-3-yl)benzyl)-1-(3,4-difluorobenzyl)-2-oxo-1,2-dihydropyridine-3-carboxamide], the half-maximal inhibitory concentration (IC50) in assay [1] and in assay [2] was less than 500 nM each time.
For `O=C(NCCCCCc1c[nH]c2ncccc12)c1cccn(Cc2cccc(Cl)c2)c1=O` [Cpd 108], the IC50 in assay [1] and in assay [2] was 500 to 10000 nM in each case.
In the case of `COc1ccnc(NCCCCCCNC(=O)c2cccn(Cc3cccc(F)c3)c2=O)n1` [Cpd 261], the half-maximal inhibitory concentration (IC50) was 500 to 10000 nM in assay [1] and less than 500 nM in assay [2].
As to `O=C1Cc2ccc(/C=C/CNC(=O)c3cc(I)cn(Cc4cc(F)c(F)c(F)c4)c3=O)cc2N1` [Cpd 178], the IC50 in assay [1] and in assay [2] was less than 500 nM each time.
Regarding `O=C(NCc1cccc(-c2c[nH]c3ncc(-c4ccco4)cc23)c1)c1cccn(Cc2ccc(F)c(F)c2)c1=O` [Cpd 57], the IC50 in assay [1] and in assay [2] was less than 500 nM throughout.
As for `COc1ccnc(NCCCCCNC(=O)c2cccn(Cc3cccc(Cl)c3)c2=O)n1` [Cpd 101], the half-maximal inhibitory concentration (IC50) in assay [1] and in assay [2] was 500 to 10000 nM in each case.
Consider `Nc1cnc(Nc2cccc(NC(=O)N3CCCC3)c2)nc1NCCCCCCNC(=O)c1cccn(Cc2cccc(Cl)c2)c1=O` [Cpd 249], for which the IC50 was more than 10000 nM in assay [1] and less than 500 nM in assay [2].
Turning to `COc1ccnc(NCCCCCNC(=O)c2cccn(Cc3ccc(Cl)c(Cl)c3)c2=O)n1` [Cpd 104], the results for the IC50 in assay [1] and in assay [2] were 500 to 10000 nM and less than 500 nM, respectively.
Turning to `COc1ccnc(NCCCCCNC(=O)c2cccn(Cc3cc(F)c(F)c(F)c3)c2=O)n1` [Cpd 267], the concentration for half-maximal inhibition (IC50) in assay [2] is less than 500 nM.
As to `O=C(NCc1cccc(-c2cccc3[nH]ncc23)c1)c1cccn(Cc2ccc(F)c(F)c2)c1=O` [Cpd 329], the half-inhibitory concentration (IC50) in assay [2] lay in the range of 500 to 10000 nM. In addition, in assay [3] (setting [4]), the EC50 (in general, the concentration that produces a half-maximal response) is more than 5 µM.
Take `CNC(=O)C[C@@H](NC(=O)c1cccn(Cc2ccc(F)c(F)c2)c1=O)c1ncc(-c2c[nH]c3ncccc23)o1` [Cpd 248]: the IC50 in assay [2] was less than 500 nM.
In the case of `Nc1ccc(-c2cccc(CNC(=O)c3cccn(Cc4ccc(F)c(F)c4)c3=O)c2)cn1` [Cpd 214], the 50% inhibitory concentration (IC50) in assay [2] lay in the range of 500 to 10000 nM.
`COCCNC(=O)c1cnc2[nH]cc(-c3cccc(CNC(=O)c4cccn(Cc5ccc(F)c(F)c5)c4=O)c3)c2c1` [Cpd 30]: in assay [1], the IC50 is less than 500 nM. Further, the half-maximal effective concentration (EC50) in assay [3] (setting [4]) and in assay [3] (setting [5]) was less than 1 µM throughout.
On to `O=C(Nc1cccc2ccc(-c3c[nH]c4ncccc34)cc12)c1cccn(Cc2ccc(F)c(F)c2)c1=O` [Cpd 35], for which, in assay [1], the concentration for half-maximal inhibition (IC50) is less than 500 nM. Besides, the EC50 was more than 5 µM in assay [3] (setting [4]) and less than 1 µM in assay [3] (setting [5]).
`O=C(NCc1cc(-c2c[nH]c3ncccc23)cc(CO)n1)c1cccn(Cc2ccc(F)c(F)c2)c1=O` [Cpd 196]: in assay [1], the 50% inhibitory concentration (IC50) is less than 500 nM. In assay [3] (setting [4]), the 50% effective concentration (EC50) lay within 1 to 5 µM.
As to `O=C(N[C@H](CO)c1nnc(-c2c[nH]c3ncccc23)o1)c1cccn(Cc2ccc(F)c(F)c2)c1=O` [Cpd 284], the 50% inhibitory concentration (IC50) in assay [1] is less than 500 nM. The EC50 in assay [3] (setting [4]) and in assay [3] (setting [5]) was 1 to 5 µM in each case.
As for `COC(=O)[C@H](COc1ccc2[nH]c(=O)[nH]c2c1)NC(=O)c1cccn(Cc2cc(F)c(F)c(F)c2)c1=O` [Cpd 153], the half-maximal inhibitory concentration (IC50) in assay [1] is less than 500 nM. Also, in assay [3] (setting [4]), the EC50 was less than 1 µM.
On the same counts, the results for `O=C(NC(COc1ccc2[nH]c(=O)[nH]c2c1)c1ccc(O)cc1)c1cccn(Cc2cc(F)c(F)c(F)c2)c1=O` (stereo not shown) [Cpd 188] are less than 500 nM and 1 to 5 µM.
Consider `O=C(N[C@@H](COc1ccc2[nH]c(=O)[nH]c2c1F)c1ccccc1)c1cccn(Cc2cc(F)c(F)c(F)c2)c1=O` [Cpd 177], for which the IC50 in assay [1] was less than 500 nM. Further, in assay [3] (setting [4]), the half-maximal effective concentration (EC50) was less than 1 µM.

(Values after patent US9873693B2 (Sunesis Pharmaceuticals, Inc., priority 2006, dated 2018).)
